Source: article PMC4742234, “Screening of Drug Metabolizing Enzymes for the Ginsenoside Compound K In Vitro: An Efficient Anti-Cancer Substance Originating from Panax Ginseng” (PLoS ONE, 2016)
Entries after “also recorded” stand apart in the source; their conditions may differ.

Biological target: T1, CYP1A2 (Homo sapiens, UniProt P05177)
T1 construct: tissue Cypex Ltd. (U.K.); host or cells: pooled human liver microsomes
T1 sequence (P05177 1-516): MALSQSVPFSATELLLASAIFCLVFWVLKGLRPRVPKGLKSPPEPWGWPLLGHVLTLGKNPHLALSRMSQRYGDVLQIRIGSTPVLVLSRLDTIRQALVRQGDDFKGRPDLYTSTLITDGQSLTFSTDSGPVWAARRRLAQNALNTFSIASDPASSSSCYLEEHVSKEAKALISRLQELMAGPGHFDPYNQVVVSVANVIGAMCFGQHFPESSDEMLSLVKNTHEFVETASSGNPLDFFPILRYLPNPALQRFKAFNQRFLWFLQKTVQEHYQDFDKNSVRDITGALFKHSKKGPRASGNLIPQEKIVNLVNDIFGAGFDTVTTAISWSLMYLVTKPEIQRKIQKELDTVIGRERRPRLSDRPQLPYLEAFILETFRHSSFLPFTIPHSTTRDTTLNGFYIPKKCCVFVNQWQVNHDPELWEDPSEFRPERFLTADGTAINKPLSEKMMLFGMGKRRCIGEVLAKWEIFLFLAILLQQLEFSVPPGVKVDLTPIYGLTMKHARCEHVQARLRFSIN
Assay: Inhibition of CYP1A2 (phenacetin O-deethylation) by CK in HLMs
Type: in vitro ADME
Procedure: The method was conducted according to our previous study with some modifications. The CYP isoform-specific probe reactions used were phenacetin O-deethylation (for CYP1A2), coumarin 7-hydroxylation (for CYP2A6), tolbutamide 4-hydroxylation (for CYP2C9), metoprolol α-hydroxylation (for CYP2D6), chlorzoxazone 6-hydroxylation (for CYP2E1),S-Mephenytoin 4-hydroxylation (for CYP2C19), and midazolam 1-hydroxylation (for CYP3A4). The kinetic study of CK was conducted with HLMs. A 0.2 mL incubation mixture that consisted of CK (as a substrate), the HLMs (0.5 mg/mL) or CYP isoforms (10 pmol), and 0.1 M sodium phosphate buffer (pH 7.4) was pre-warmed for 5 min at 37°C. The reaction was initiated by the addition of 1 mg/mL triphosphopyridine nucleotide (NADPH). All the reagents were dissolved in methanol, and the final solvent concentration in all incubations (including the controls) was 1%. The final incubations were performed in a shaking water bath (37°C) for 30 min. The reactions were stopped by adding 0.2 mL ice-cold acetonitrile, which contains irbesartan (114.9 ng/mL) as the internal standard. The samples were vortexed for 5 min. After centrifugation (12000×g for 10 min), the supernatants were transferred, and aliquots of 20 μL were injected into the HPLC-MS/MS system for analysis.
CK (10–100 μM) and a single CYP isoform-specific substrate (with a concentration similar to its corresponding Kmvalue) were used to determine the inhibitory effect of CK on specific CYP isoforms as described in detail previously. Substrates including phenacetin, coumarin, tolbutamide, metoprolol, chlorzoxazone, S-Mephenytoin, and midazolam were used at concentrations of 10, 5, 100, 7.5, 40, 100, and 5 μM, respectively. All incubation conditions were the same as mentioned above. The inhibitory effects on the CYP isoforms were investigated individually by incubating the HLMs in the absence or presence of CK. […]

SMILES: CC(C)=CCC[C@](C)(OC1O[C@H](CO)[C@@H](O)[C@H](O)[C@H]1O)[C@H]1CC[C@]2(C)[C@@H]1[C@H](O)C[C@@H]1[C@@]3(C)CC[C@H](O)C(C)(C)[C@@H]3CC[C@]12C (stereo partly drawn) [CK, 20-O-β-(D-glucopyranosyl)-20(S)-protopanaxadiol]
- inhibitory effect on the activity of CYP1A2 (HLMs, CK 10–100 μM): minimal; also recorded: negligible
- IC50 (HLMs, phenacetin 10 μM, CK 10–100 μM): > 100 µM
- inhibitor potency class for CYP1A2 (classified by IC50 according to Kong et al): weak (weak, if IC50≥100 μg/mL or ≥50 μM)
